test: gradient 5% acetonitrile 3 min, to 50% in 2 min, to 85% in 15 min, held 3 min, 100 µL/min; conditions: column: Zorbax Extend-C18 2.1 x 50 mm; eluents: water / acetonitrile, 0.1% formic acid
How it was run: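 Retention times come from adduct peaks that were picked computationally and then checked by hand. The standards, pure and pooled in mixtures of ~100 molecules, were run on a Zorbax Extend-C18 column (2.1 × 50 mm, 1.8 μm) at 100 μL/min with water and acetonitrile, each with 0.1% formic acid. Detection was by quadrupole time-of-flight mass spectrometry in positive and negative ionization mode, with a dead volume of 40 μL and a dwell volume of 900 μL.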

Row | RP-LC retention time [s] | Compound
1 | 656 | Cn1c(CC2CCN(S(=O)(=O)Cc3cccc(Cl)c3)C2)nc2cccnc21 (stereo unspecified)
2 | 602 | O=C(NCC1CCCO1)C1CCN(C(=O)c2cccn2-c2cccnc2)CC1 (stereo unspecified)
3 | 494 | Cn1cnnc1SCCNC(=O)CNC(=O)c1ccc(=O)[nH]c1
4 | 1020 | CCc1noc(-c2ccnc(-n3ncc(C(=O)N4CCC(C)CC4)c3C)c2)n1
5 | 715 | CCCN1CCN(c2ccc(-c3nc(-c4ccccc4)no3)cn2)CC1
6 | 698 | CCc1ccc(NC(=O)N2CCN(c3cnn4c(CC)nnc4c3)CC2)cc1
7 | 605 | O=C(NCc1ccccc1)C(=O)c1c[nH]c2ccccc12
8 | 708 | COc1ccc(NC(=O)NCCCn2c(C(F)(F)F)nc3cccnc32)cc1OC
9 | 1380 | CCOC(=O)c1c(C)oc2nc(C)nc(NCCc3ccc(Cl)cc3)c12
10 | 714 | Cn1ncc(N2CCC(C(=O)N3CCc4ccccc43)C2)cc1=O (stereo unspecified)
11 | 1180 | O=S(=O)(c1ccc(Br)s1)N1CCCC1c1nc(-c2ccc(F)cc2)no1 (stereo unspecified)
12 | 658 | Cc1ccc(S(=O)(=O)c2ccc(C(=O)N3CCN(c4ccccn4)CC3)cn2)cc1C
13 | 873 | Cc1ccccc1NC(=O)N1CCC(CCNC(=O)C2(c3ccccc3)CC2)CC1
14 | 596 | O=C(Nc1ccccc1)N1CCc2nnc(C3CC3)n2CC1
15 | 821 | CC1(C)SC2C(NC(=O)COc3ccccc3)C(=O)N2C1C(=O)O (stereo unspecified)
16 | 855 | CC(C(=O)NCCc1cccs1)n1c2ccccc2c2cnn(C)c(=O)c21 (stereo unspecified)
17 | 1000 | CCOc1ccc2nc(C(=O)N3CCN(c4ccc(Cl)cc4)CC3)cn2n1
18 | 733 | O=C(NC1CC1)[C@@H]1C[C@H](Oc2ccccc2)CN1C(=O)c1ccsc1
19 | 760 | Cc1ccc(C(=O)N2CCCC2c2c(C)noc2C)cc1 (stereo unspecified)
20 | 964 | CCOC(=O)c1ccc(Nc2c(-c3ccc(Cl)cc3)nc3cnccn23)cc1
21 | 927 | CC(C)C(=O)Nc1ccc(C2(C(=O)NCc3ccc(F)c(Cl)c3)CCC2)cc1
22 | 757 | CCn1nc(C)c2ccn(CC(=O)NCc3cc(F)cc(F)c3)c(=O)c21

Row | RP-LC retention time [s] | Compound
23 | 864 | CCc1noc(NC(C)=O)c1-c1ccc(OC)c(S(=O)(=O)N2CCC(C)CC2)c1
24 | 860 | COc1cccc(-c2cc3c(=O)n(CC(O)c4ccccc4)ccn3n2)c1 (stereo unspecified)
25 | 623 | O=C(c1ccc(Cl)s1)N1CCCn2nc(-c3ccncc3)cc2C1
26 | 589 | Cc1ccc(CN2C[C@@H]3C(=O)N(CCCN4CCCC4=O)C(=O)[C@@H]3C2)cc1
27 | 667 | CC(C)NC(=O)c1ccc(-c2nc3cc(NS(=O)(=O)Cc4ccccc4)ccc3n2C)cc1
28 | 1220 | Fc1cccc(-c2noc(-c3nc(-c4ccc5c(c4)OCO5)no3)n2)c1
29 | 601 | Cc1cccc2c(=O)c3c([nH]c12)CCN(CC(=O)NCc1ccccc1)C3
30 | 818 | CNC(=O)c1ccc(C)c(-n2c(C)cc(OCc3ccc(F)cc3F)c(Br)c2=O)c1
31 | 557 | O=C(c1ccsc1)N1CCN(c2ncnc3c2CCC3)CC1
32 | 948 | Cc1cc(NS(=O)(=O)c2cn(C(C)C)c3ncccc23)ccc1F
33 | 714 | Cc1ccc(NC(=O)Cn2c(C(C)C)nc3c(c2=O)CCN(Cc2ccccc2)C3)cc1
34 | 678 | Cc1ccccc1Nc1c(-c2cccc(O)c2)nc2cccc(C)n12
35 | 957 | O=C(Nc1ccc(F)cc1F)c1c(O)c2cccnc2n(-c2ccc(F)cc2)c1=O
36 | 971 | CCOC(=O)c1nc(Nc2ccc(F)c(Cl)c2)c2ccccc2n1
37 | 794 | CC(C)CCN1CCC(N2CCN(S(=O)(=O)c3ccc(C(F)(F)F)cc3)CC2)C1=O (stereo unspecified)
38 | 971 | CCOC(=O)C1CCCN(C(=O)CCCn2c(=O)c3cccn3c3ccc(Br)cc32)C1 (stereo unspecified)
39 | 715 | O=C(NCCN1CCCCCC1)C1CCCN(c2ncc(-c3ccc(F)cc3)cn2)C1 (stereo unspecified)
40 | 585 | CCC(=O)N1CCc2cc(N3CC(C(=O)NC(C)c4ccccn4)CC3=O)ccc21 (stereo unspecified)
41 | 590 | CCCNC(=O)N1CCCC(c2nn[nH]n2)C1 (stereo unspecified)
42 | 1150 | Cc1ccc(Oc2nccnc2N2CCCC(C(=O)NC(C)c3ccc(C)c(C)c3)C2)cc1 (stereo unspecified)
43 | 542 | O=C(NCCN1CCOCC1)c1csc(-c2ccc(N3CCCC3)nc2)n1
44 | 673 | COc1ccc(F)cc1S(=O)(=O)N1CCc2nn(C)c(=O)n2CC1

Row | RP-LC retention time [s] | Compound
45 | 678 | NC[C@@](O)(c1ccc(Cl)cc1)c1ccc(-c2cn[nH]c2)cc1
46 | 789 | Cc1ccc(-c2nc3n(CC(=O)NC4CCCC4)c4c(c(=O)n3n2)CCC4)cc1
47 | 702 | CCC(NC(=O)C1CCN(c2cnc3nccnc3c2)CC1)c1cccs1 (stereo unspecified)
48 | 797 | COc1ccc2[nH]cc(CCNC(=O)CN3C(=O)CCn4nc(-c5cn(C)c6ccccc56)cc43)c2c1
49 | 1260 | O=C(C1CCCN(c2nccnc2Sc2ccccc2)C1)N1CCN(c2cccc(Cl)c2)CC1 (stereo unspecified)
50 | 853 | CCCn1c(=O)c(C)nc2cc(-c3noc(CNS(=O)(=O)c4ccccc4)n3)ccc21
51 | 880 | O=C(Cc1ccc(F)cc1)NCCOc1cccc(C(F)(F)F)c1
52 | 1250 | CCc1ccc(-n2ncc3c(=O)n(Cc4nc(-c5ccc(F)c(Cl)c5)no4)cnc32)cc1
53 | 695 | O=C(CC1CCN(C(=O)NC2CCCC2)CC1)N1CCCCC1
54 | 879 | CC(C)NC(=O)C1CCN(c2nc3ccc(-c4cccs4)nc3s2)CC1
55 | 500 | COc1cccc(OC)c1CN1C[C@@H](CO)[C@H](c2ccncc2)C1
56 | 875 | CC1=C(c2ccc(Cl)cc2)S(=O)(=O)N=C1N1CCCN(C(=O)CC(C)C)CC1
57 | 813 | CCCC(=O)OCCCNc1nc(-c2ccc(Cl)cc2)nc2ccccc12
58 | 956 | COc1ccccc1-c1noc(Cn2c(=O)n(Cc3ccc4c(c3)OCO4)c(=O)c3sccc32)n1
59 | 735 | Cc1cc2n(n1)CCCN2C(=O)CCC(=O)Nc1ccc(Br)cc1F
60 | 515 | COCCN1CCC(N2CCN(C(=O)c3ccsc3)CC2)C1=O (stereo unspecified)
61 | 1210 | Cc1ccc(C2C=CC(C#N)=CN2Cc2ccccc2)cc1 (stereo unspecified)
62 | 658 | COc1ccc2[nH]c3c(C)c4ccncc4c(C)c3c2c1
63 | 840 | CC(C)Cc1ccc(S(=O)(=O)N2CCN(c3ccccn3)CC2)cc1
64 | 758 | NC(=O)c1oc2ccccc2c1NC(=O)C(=O)NCc1ccc2c(c1)OCO2
65 | 803 | O=C(NCc1cccs1)C1CCN(S(=O)(=O)c2cc(C(=O)N3CCOCC3)cs2)CC1

Row | Compound | RP-LC retention time [s]
66 | COc1ccc(NC(=O)N2[C@H]3CC[C@@H]2c2cnc(C)nc2C3)cc1OC | 611

From the METLIN SMRT retention time set (Domingo-Almenara et al. 2019)
